Results as given in ChEMBL document CHEMBL1201862, “PubChem BioAssay data set” (2004).
The source made the active and inactive calls. For most assays here, no stated cut-off is given here; in the data, actives have a measured EC50 and inactives only a lower limit.

Legend:
[1] = target: T1, Corticotropin-releasing factor receptor 2/Corticotropin-releasing factor-binding protein (Homo sapiens, UniProt P24387+Q13324); assay: Dose Response confirmation of uHTS hits for small molecule antagonists of the CRF-binding protein and CRF-R2 receptor complex.; format: functional; details: read-out: IC50_Mean
T1 sequence (Q13324 whole entry): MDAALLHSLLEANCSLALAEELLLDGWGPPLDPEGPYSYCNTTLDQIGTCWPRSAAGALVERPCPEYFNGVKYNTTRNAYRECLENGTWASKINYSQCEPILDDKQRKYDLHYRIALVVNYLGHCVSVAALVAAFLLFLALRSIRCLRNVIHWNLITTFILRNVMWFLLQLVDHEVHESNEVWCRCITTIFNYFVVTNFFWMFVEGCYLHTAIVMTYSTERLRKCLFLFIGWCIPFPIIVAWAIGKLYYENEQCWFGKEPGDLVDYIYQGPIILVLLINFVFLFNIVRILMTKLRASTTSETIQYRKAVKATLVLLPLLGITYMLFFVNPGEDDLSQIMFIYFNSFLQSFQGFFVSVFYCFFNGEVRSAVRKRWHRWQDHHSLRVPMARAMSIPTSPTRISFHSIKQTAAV
T1 sequence (P24387 whole entry): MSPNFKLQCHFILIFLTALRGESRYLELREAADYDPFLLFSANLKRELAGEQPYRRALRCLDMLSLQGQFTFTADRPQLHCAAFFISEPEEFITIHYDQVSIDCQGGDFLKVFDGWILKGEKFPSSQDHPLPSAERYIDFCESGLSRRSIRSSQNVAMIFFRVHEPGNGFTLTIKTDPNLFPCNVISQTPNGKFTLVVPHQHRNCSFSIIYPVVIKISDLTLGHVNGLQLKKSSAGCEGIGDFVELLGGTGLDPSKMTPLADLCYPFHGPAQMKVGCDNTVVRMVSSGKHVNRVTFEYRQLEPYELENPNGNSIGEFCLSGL

[2] = target: T1, Corticotropin-releasing factor receptor 2/Corticotropin-releasing factor-binding protein; assay: activators of CRF receptor 2 with binding protein – uHTS hits, confirmation (AID 602473); format: functional; details: read-out: EC50_Mean
H9c2 = assay: cells; format: functional, cell-based; details: Rattus norvegicus, H9c2, Myocardium;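 further: confirmatory concentration-response retest of ultra-high-throughput screening hits for modulation of myocardial damage; cell death induced by hydrogen peroxide oxidative stress; compound pretreatment for 60 min then peroxide exposure for 2 h; potency is for protecting the cells against peroxide damage rather than for killing them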
H4 = assay: Luminescence Cell-Based Dose Response HTS to Identify Activators of 5'UTR Stem-Loop Driven Prion Protein mRNA Translation in H4 Neuroglioblastoma Cells. [Related pubchem assays: 1829 (Project Summary), 1814 (Primary HTS)]; format: functional; details: Homo sapiens
[3] = Luminescence Cell-Based Dose Response HTS to Identify Activators of Luciferase Translation or Activity in H4 […] Cells. [Related pubchem assays: 1829 (Project Summary), 1814 (Primary HTS)]; format: functional
[4] = Luminescence Cell-Based Dose Confirmation HTS to Identify Activators of 5'UTR Stem-Loop Driven Alpha-Synuclein mRNA Translation in H4 Neuroglioblastoma Cells. [Related pubchem assays: 1829 (Project Summary), 1814 (Primary HTS)]; format: functional
[5] = NIH-3T3 fibroblast cytotoxicity, dose response, cytotoxicity control, cell-based, fluorescence, Alamar Blue, secondary assay (AID 2327); format: functional;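 further: NIH-3T3 mouse fibroblasts cultured with fluconazole at 8 µg/mL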
[6] = C. albicans growth with fluconazole, confirmation, fluorescence, retest (AID 2467); format: functional, cell-based
BJ [7] = assay: cytotoxicity toward BJ-TERT-LT-ST fibroblasts, dose response, cell-based, RAS-independent, luminescence (AID 1935); format: functional; details: Homo sapiens;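 further: BJ fibroblasts immortalized with TERT plus LT and ST oncogenes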
BJ [8] = assay: cells; format: functional, cell-based; details: Homo sapiens
BJ [9] = assay: cytotoxicity toward BJ-TERT fibroblasts, dose response, cell-based, RAS-independent, luminescence (AID 1933); format: functional; details: Homo sapiens
[10] = cytotoxicity toward DRD oncogenic fibroblasts, dose response, cell-based, non-viral oncogenic, luminescence (AID 1934); format: functional; details: Homo sapiens
Protein skinhead-1 = target: T2, Protein skinhead-1 (Caenorhabditis elegans, UniProt P34707); format: functional
T2 sequence (P34707 whole entry): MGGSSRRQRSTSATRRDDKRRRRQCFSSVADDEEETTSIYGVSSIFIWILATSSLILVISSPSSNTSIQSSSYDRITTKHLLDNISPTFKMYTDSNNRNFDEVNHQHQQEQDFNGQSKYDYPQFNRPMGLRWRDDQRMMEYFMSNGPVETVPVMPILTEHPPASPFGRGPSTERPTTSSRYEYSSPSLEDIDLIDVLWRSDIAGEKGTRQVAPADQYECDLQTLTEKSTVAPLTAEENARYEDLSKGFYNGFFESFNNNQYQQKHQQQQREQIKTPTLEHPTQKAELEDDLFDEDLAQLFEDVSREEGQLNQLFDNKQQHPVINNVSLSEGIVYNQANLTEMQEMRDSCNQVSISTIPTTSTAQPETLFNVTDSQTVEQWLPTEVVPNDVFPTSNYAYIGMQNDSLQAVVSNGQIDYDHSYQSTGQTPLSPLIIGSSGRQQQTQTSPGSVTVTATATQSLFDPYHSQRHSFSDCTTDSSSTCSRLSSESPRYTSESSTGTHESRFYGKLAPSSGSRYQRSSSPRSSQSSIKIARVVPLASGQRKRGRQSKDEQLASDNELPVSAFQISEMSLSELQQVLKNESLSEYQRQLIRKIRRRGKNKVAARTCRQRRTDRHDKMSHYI

Streptococcus = assay: Group A Streptococcus viability loss, dose response, counter-screen for streptokinase expression inhibitor project, luminescence, BacTiterGlo (AID 1915); format: functional, organism-based;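 further: potency for reduction of bacterial viability or growth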
Streptokinase A = target: T3, Streptokinase A (Streptococcus pyogenes serotype M1, UniProt P10520); assay: S. pyogenes streptokinase expression inhibitors, potency, dose response, plasminogen activation absorbance, OD405 (AID 1914); format: functional, Streptococcus pyogenes M1 GAS;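 further: secreted streptokinase activity via plasminogen activation per viability signal from cell pellet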
T3 sequence (P10520 whole entry): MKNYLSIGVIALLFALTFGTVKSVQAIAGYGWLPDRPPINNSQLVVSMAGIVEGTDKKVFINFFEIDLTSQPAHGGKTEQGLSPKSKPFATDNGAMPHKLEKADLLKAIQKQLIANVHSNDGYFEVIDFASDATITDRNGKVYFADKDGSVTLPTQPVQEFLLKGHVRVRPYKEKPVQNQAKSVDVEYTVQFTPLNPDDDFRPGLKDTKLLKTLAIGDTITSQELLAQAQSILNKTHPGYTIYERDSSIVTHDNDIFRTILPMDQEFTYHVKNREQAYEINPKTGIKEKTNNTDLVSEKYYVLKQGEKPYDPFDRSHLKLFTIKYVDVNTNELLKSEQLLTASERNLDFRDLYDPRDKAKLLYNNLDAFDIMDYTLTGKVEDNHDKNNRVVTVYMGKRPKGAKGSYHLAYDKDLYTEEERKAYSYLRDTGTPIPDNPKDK

[11] = tested on: Streptococcus sp. 'group A'; assay: growth inhibition of control SK(-) GAS strain, dose response, counter-screen for streptokinase expression inhibitor project, luminescence, kanamycin, BacTiterGlo, confirmation (AID 1900); format: functional, organism-based
[12] = Luminescence Cell-Based Dose Confirmation HTS to Identify Inhibitors of Platelet Dense Granule Release. [Related pubchem assays: 1663 (Primary HTS), 1678 (Summary of Project)]; format: functional
[13] = target: Luciferin 4-monooxygenase (Photinus pyralis, UniProt P08659); assay: firefly luciferase enzyme inhibitors, dose response, biochemical, luminescence (AID 1891)
Luciferin 4-monooxygenase, sequence (P08659 whole entry): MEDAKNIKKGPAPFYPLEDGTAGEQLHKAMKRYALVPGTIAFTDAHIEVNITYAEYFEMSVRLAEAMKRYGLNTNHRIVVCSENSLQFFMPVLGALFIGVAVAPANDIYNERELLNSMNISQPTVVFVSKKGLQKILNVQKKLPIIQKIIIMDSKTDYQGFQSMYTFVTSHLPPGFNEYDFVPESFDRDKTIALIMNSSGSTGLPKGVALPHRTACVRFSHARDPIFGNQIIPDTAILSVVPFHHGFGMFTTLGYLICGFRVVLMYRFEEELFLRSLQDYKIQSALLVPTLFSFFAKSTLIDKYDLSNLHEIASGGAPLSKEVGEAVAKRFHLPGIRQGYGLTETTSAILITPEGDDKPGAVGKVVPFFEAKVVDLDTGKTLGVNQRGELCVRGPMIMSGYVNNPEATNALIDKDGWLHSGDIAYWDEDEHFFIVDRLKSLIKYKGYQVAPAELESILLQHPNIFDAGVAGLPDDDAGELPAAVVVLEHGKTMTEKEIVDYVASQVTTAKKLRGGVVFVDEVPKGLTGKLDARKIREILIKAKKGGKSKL

[14] = P. falciparum Dd2 growth inhibitors, dose response, SYBR Green, cherry-picked samples (AID 1159567); format: functional, cell-based

COC(=O)c1ccc(OCC(O)CN2C(=O)c3ccccc3S2(=O)=O)cc1 (centres undefined)
IC50 [1]: > 47.1 µM (inactive) | EC50 [2]: > 53 µM (inactive)

COc1cccc(-c2nnc3sc(-c4ccccn4)nn23)c1
IC50 (H9c2): > 79 µM (inactive)

O=C(CCc1nc(O)c2ccccc2n1)Nc1nc(-c2cccs2)cs1
EC50 (H4): 104 µM (inconclusive) | IC50 (H9c2): 17.3 µM (active) | EC50 [3]: 15.8 µM (active) | EC50 [4]: 12.5 µM (active)

Oc1nc2c(c3c1CCCC3)CCCC2
IC50 (H9c2): > 79 µM (inactive)

c1ccc(CN2CCc3nc4ccccc4cc3C2)cc1
EC50 (H4): 52.7 µM (active) | EC50 [3]: 33.8 µM (active) | EC50 [5]: > 160 µM (inconclusive) | EC50 [6]: > 38 µM (not active) | EC50 [4]: 0.215 µM (active)

CCOc1ccc(NC(=O)CCNS(=O)(=O)c2cccc3nonc23)cc1
IC50 [1]: > 47.1 µM (inactive) | EC50 [2]: > 53 µM (inactive)

O=C(COC(=O)c1cc(-c2cccnc2)nc2ccccc12)Nc1ccc(F)cc1F
IC50 (H9c2): 13.8 µM (active)

CCCC(=O)Nc1ccc2c(c1)nc(CN1CCN(C(=O)OCC)CC1)n2CC
EC50 (BJ [7]): > 75 µM (inconclusive) | EC50 (BJ [8]): 122 µM (active) | EC50 (BJ [9]): 15.4 µM (inconclusive) | EC50 [10]: 18 µM (active)

COc1ccc(-c2cc(C(F)F)n3ncc(C(=O)n4ccnc4C)c3n2)cc1
EC50 (BJ [7]): > 150 µM (inconclusive) | EC50 (BJ [8]): 15.3 µM (active) | EC50 (BJ [9]): 7.36 µM (inconclusive) | EC50 [10]: 7.6 µM (active)

COc1ccc(NC(=O)c2cn(CCC#N)nc2-c2ccc([N+](=O)[O-])cc2)cc1
EC50 (BJ [7]): > 150 µM (not active) | EC50 (BJ [8]): > 150 µM (not active) | EC50 (BJ [9]): > 150 µM (not active) | EC50 [10]: > 150 µM (not active)

Cc1noc(/C=C/N(C)C)c1S(=O)(=O)N1CCC(C(=O)Nc2ccc(Cl)cc2)CC1
IC50 [1]: > 47.1 µM (inactive) | EC50 [2]: > 53 µM (inactive)

c1ccc(-c2cc3nccc(-c4ccccn4)n3n2)cc1
IC50 (Protein skinhead-1): 47 µM (active) | IC50 [1]: > 47.1 µM (inactive) | EC50 [2]: > 53 µM (inactive)

COc1ccccc1NC(=O)CSc1ccc2nnc(-c3ccc(C)cc3)n2n1
IC50 (H9c2): > 79 µM (inactive)

COc1ccccc1NC1=NC(=O)/C(=C/c2ccc(N(C)C)cc2)S1
EC50 (BJ [7]): 64.2 µM (inconclusive) | EC50 (BJ [8]): 59 µM (active) | EC50 (Streptococcus): 46.7 µM (active) | EC50 (BJ [9]): 1.91 µM (active) | EC50 [10]: 1.45 µM (active) | EC50 (Streptokinase A): > 150 µM (not active) | EC50 [11]: 15.1 µM (active)

CCOC(=O)N1CCC(n2c(SCC(=O)N3CCC(C)CC3)nc3ccccc3c2=O)CC1
IC50 (H9c2): > 79 µM (inactive)

Cn1cc(S(=O)(=O)N2CCCC2)cc1C(=O)N1CCN(c2cccc(Cl)c2)CC1
EC50 [12]: > 112 µM (not active) | EC50 [13]: > 112 µM (not active)

COc1cc(OC)cc(C(=O)NC2CC3CCC(C2)N3Cc2ccco2)c1 (centres undefined)
IC50 [1]: > 47.1 µM (inactive) | EC50 [2]: > 53 µM (inactive)

O=C(Cc1ccccc1)Nc1nonc1NC(=O)c1ccccc1
EC50 [5]: > 150 µM (inactive) | EC50 [6]: 3.18 µM (active)

CC(OC(=O)c1ccc(-c2ccc(O)cc2)cc1)C(=O)NC1CCCCC1C (centres undefined)
IC50 [1]: > 47.1 µM (inactive) | EC50 [2]: > 53 µM (inactive)

COc1ccc(/C=C/C(=O)c2ccccc2O)cc1CN1CCOCC1
IC50 (H9c2): > 79 µM (inactive)

Cc1ccc2nc(-c3ccccc3)cc(C(=O)NNC(=O)c3csc(N4CCOCC4)n3)c2c1
IC50 (H9c2): > 79 µM (inactive)

C=CCCC(=O)N1CCC(n2nccc2NC(=O)c2ccc(OC)cc2)CC1
IC50 [1]: > 47.1 µM (inactive) | EC50 [2]: > 53 µM (inactive)

CC(=O)c1c(C)n(-c2cccc(Cl)c2)c2ccc(O)cc12
IC50 (H9c2): 10.4 µM (active)

C=CCN1C(=O)NC(=O)/C(=C(/CC)NCc2ccc3c(c2)OCO3)C1=O
IC50 [1]: > 47.1 µM (inactive) | EC50 [2]: > 53 µM (inactive)

COc1ccc(C(C(=O)NCc2ccccc2)N(Cc2ccco2)C(=O)c2snc(C(N)=O)c2N)cc1 (centres undefined)
IC50 (H9c2): > 79 µM (inactive)

COc1ccc(C(=O)Nc2ccccc2C(=O)N/N=C/c2ccccc2OC)cc1
EC50 [12]: 1.11 µM (active) | EC50 [13]: 0.286 µM (active)

COc1ccc(C(=O)Nc2ccccc2C(=O)N/N=C/c2ccco2)cc1
EC50 [12]: 4.14 µM (active) | EC50 [13]: 0.329 µM (active)

Cc1ccc(-n2nc(C)c(/C=N/c3ccc(S(=O)(=O)Nc4nccs4)cc3)c2O)cc1
EC50 (BJ [7]): > 150 µM (not active) | EC50 (BJ [8]): > 150 µM (not active) | EC50 (BJ [9]): 12.8 µM (active) | EC50 [10]: 24 µM (active)

CC(C)(O)C#Cc1ccc([C@H]2[C@H](CO)N3CCCCN(C(=O)c4ccc(F)cc4)C[C@@H]23)cc1
AC50 [14]: 15.3 µM (active)

COc1cccc(CN2CC3(CN(Cc4ccccn4)C3)c3c([nH]c4cc(OC)ccc34)[C@H]2CO)c1
AC50 [14]: 5.33 µM (active)

CN(C)c1ccc2c(c1)[C@@H]1C[C@H](CC(=O)N3CCc4ccccc4C3)O[C@@H](CO)[C@@H]1O2
AC50 [14]: 7.8 µM (active)
